Like-named read-outs stand apart in the source and are kept apart here. Ends that are not written are not given here. Peptide text beside a SMILES is read from it.
Key:
trypsin = conditions: pH 7.4
[1] = biological target: MAb 11 × 2 (IgG3) anti-D peptide
[2] = biological target: MAb 11 × 7 (IgG3) anti-D peptide
in vitro = conditions: pH 7.4
[3] = test system: anti-virus serum raised in rabbit and serum against the 91–108 sequence expressed at the surface of Salmonella flagellin; assay type: binding; conditions: FIGS. 14 and 15
I-A^d class II molecules = I-A^d class II molecules (Mus musculus, UniProt P01921+P04228); assay type: cell-based
Sequence of I-A^d class II molecules (P04228 24-256 limits assumed): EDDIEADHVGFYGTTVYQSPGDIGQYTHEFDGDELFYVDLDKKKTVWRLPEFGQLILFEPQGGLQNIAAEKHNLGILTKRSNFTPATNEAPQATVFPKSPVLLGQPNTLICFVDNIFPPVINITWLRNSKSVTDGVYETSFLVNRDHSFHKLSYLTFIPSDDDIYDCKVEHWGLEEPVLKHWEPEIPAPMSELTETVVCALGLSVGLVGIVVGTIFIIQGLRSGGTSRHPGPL
Sequence of I-A^d class II molecules (P01921 28-265 limits assumed): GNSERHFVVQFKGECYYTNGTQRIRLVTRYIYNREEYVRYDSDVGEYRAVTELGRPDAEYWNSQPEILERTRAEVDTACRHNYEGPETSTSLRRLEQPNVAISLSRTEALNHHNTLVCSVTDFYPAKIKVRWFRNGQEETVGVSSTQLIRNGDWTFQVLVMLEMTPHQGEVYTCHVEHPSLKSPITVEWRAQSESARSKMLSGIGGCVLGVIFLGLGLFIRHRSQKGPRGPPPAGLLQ

[4] = test system: peptide-primed T lymphocytes from BALB/c mice; assay type: cell-based, mouse
[5] = test system: peptide-primed T lymphocytes from BALB/c mice; assay type: cell-based, mouse; remark: listed apart in the source
I-E^d class II molecules = I-E^d class II molecules (Mus musculus, UniProt P01904+P01915); assay type: cell-based
Sequence of I-E^d class II molecules (P01904 26-255 limits assumed): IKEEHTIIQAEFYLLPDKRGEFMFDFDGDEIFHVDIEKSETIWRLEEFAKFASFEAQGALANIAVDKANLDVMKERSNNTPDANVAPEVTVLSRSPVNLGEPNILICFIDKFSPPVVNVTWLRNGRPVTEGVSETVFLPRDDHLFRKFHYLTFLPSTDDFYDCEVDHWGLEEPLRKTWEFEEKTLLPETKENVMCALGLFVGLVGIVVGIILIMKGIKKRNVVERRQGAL
Sequence of I-E^d class II molecules (P01915 27-264 limits assumed): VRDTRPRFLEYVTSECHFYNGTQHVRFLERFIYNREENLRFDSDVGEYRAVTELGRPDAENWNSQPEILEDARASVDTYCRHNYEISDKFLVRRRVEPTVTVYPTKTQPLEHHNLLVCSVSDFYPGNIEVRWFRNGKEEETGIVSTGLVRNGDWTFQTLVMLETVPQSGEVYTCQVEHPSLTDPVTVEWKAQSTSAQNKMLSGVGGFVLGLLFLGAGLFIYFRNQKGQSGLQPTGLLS

BALB/c mice = conditions: mouse, in vivo
[6] = test system: I-E^d-restricted T-cell hybridomas 45G10, 44B1 and 41C1; assay type: cell-based, mouse
[7] = test system: TCR of peptide-primed lymph node T-cells; assay type: cell-based, mouse
[8] = test system: sera of patients suffering from various systemic rheumatic diseases; assay type: binding, human
HLA-A2 = assay type: binding, human
[9] = test system: IgG antibodies of sera of patients suffering from DLE and SS; assay type: binding, human
[10] = test system: IgG antibodies of sera of patients suffering from DLE and SS; assay type: binding, human; remark: listed apart in the source
Experimental: FIG. 6: ELISA reactivity of serum samples originating from patients suffering from DLE and SS with the parent peptide and the analogue RIb 277–291 of Ro52. The sera of the patients are diluted to 1:1,000. Only the antibody activity of the sub-class IgG is measured. The median values of the optical density are indicated. The broken line represents the upper limit of the normal population corresponding to the mean value of the optical density of 20 normal human sera+2 SD (standard deviation) (0.30 OD units).
Sera of female F1 lupous mice (NZB/W) were obtained from S. Batsford (Freibourg, Germany). The human sera originate from patients suffering from disseminated lupus erythematosus (DLE) and Sjögren's syndrome (SS). They were obtained from D. A. Isenberg (London), O. Meyer (Paris) and G. Fournié (Toulouse). The sera of healthy volunteers were obtained from J. L. Pasquali (Strasbourg).
The sera of lupous mice were tested by ELISA as described previously (Benkirane, N., Friede, M., Guichard, G., briand, J. P., Van Regenmortel, M. H. V. and Muller, S. (1993) Antigenicity and immunogenicity of modified synthetic peptides containing D-amino acid residues. J. Biol. Chem., 268: 26279–26285). Only the antibodies of isotype IgG were tested. […] Clin. Exp. Immunol., 95: 397–407) except in the case of the peptide Ro52 277–291, where sensitization of the ELISA plates was carried out at 4° C. instead of 37° C. (see the reasons above). The threshold value for positivity of each test, including that of tests based on the use of retro-inverso peptide analogues, was determined using 20 sera of healthy individuals. The antigenic activity of the peptides is also measured by ELISA using a liquid phase inhibition test.
The 30 sera (positive or negative with respect to the L peptide) were tested in parallel with the RIa and RIb analogues. It was shown that all the sera positive with the L peptide were also positive with the retro-inverso peptides. […] The mean optical density corresponding to the arithmetic mean of all the optical density values, including the values below the threshold line of positivity, is 0.21 (standard deviation 0.25) and 0.51 (standard deviation 0.62) with the L and RIb peptides respectively.

[11] = test system: antibodies of sera of patients bonding to the RIb peptide; assay type: binding, human

Molecule: CC[C@@H](C)[C@@H](NC(=O)CNC(=O)CNC(=O)[C@H](N)CS)C(=O)N[C@H](CCCNC(=N)N)C(=O)NCC(=O)N[C@H](CCC(=O)O)C(=O)N[C@H](CCCNC(=N)N)C(=O)N[C@H](C)C(=O)O [D peptide] (HELM PEPTIDE1{[dC].G.G.[dI].[dR].G.[dE].[dR].[dA]}$$$$V2.0)
- time to complete loss of immunological activity on digestion with immobilized trypsin (trypsin): > 240 min
- BIAcore (Ka M^−1) affinity constant at equilibrium [1]: 1e+10 M⁻¹
- Ka (affinity constant at equilibrium) [1]: 13,000 ×10^6 M^−1
- BIAcore (Ka M^−1) affinity constant at equilibrium [2]: 1e+07 M⁻¹
- Ka (affinity constant at equilibrium) [2]: 1.2e+07 M⁻¹
- half-life (in vitro): 1.22 h

Molecule: Ac-CKAFSNSYPYDVPDYASL-NH2 [double blocked L-peptide *C18L*]
- recognition by the tested antibodies (ELISA) [3]: substantially recognized in the same way

Molecule: Ac-YFMYSKLRVQKSC-NH2 [L-peptide 435–446 of γ2a^b]
- reduction of the IL-2 production level (I-A^d class II molecules): > 88%
- IL-2 production of T-lymphocytes of mice immunized with parent peptide 435–446 of γ2a^b, stimulated by the peptide [4]: only observed after stimulation by the parent peptide
- maximal IL-2 secretion measured using CTL-L cells in the presence of Con A [4]: 21 565 cpm
- proliferation and IL-2 production of lymph node cells of mice immunized with retro-inverso analogue 435–446 of γ2a^b, stimulated by the peptide [5]: proliferation of lymph node cells and IL-2 production were observed
- proliferation of T-lymphocytes of mice immunized with parent peptide 435–446 of γ2a^b, stimulated by the peptide [5]: induced a proliferative T-cell response
- inhibition (of IL-2 production / binding of cI 12–26) (I-E^d class II molecules): Up to 84%
- cross-reaction in ELISA of antibodies raised against the peptide with the counterpart (L or retro-inverso) peptide (BALB/c mice): showed no cross-reaction

Molecule: CH3CO-(D)Cys-(D)Ser-(D)Lys-(D)Gln-(D)Val-(D)Arg-(D)Leu-(D)Lys-(D)Ser-(D)Tyr-(D)Met-(D)Phe-(D)Tyr-NH2 [retro-inverso peptide 435–446 of γ2a^b]
- inhibition, in words (I-A^d class II molecules): almost no inhibition
- reduction of the IL-2 production (I-A^d class II molecules): about 35%
- IL-2 production of T-lymphocytes of mice immunized with parent peptide 435–446 of γ2a^b, stimulated by the peptide [4]: failed to induce detectable IL-2 secretion
- maximal IL-2 secretion measured using CTL-L cells in the presence of Con A [4]: 26 445 cpm
- inhibition (of IL-2 production / binding of cI 12–26) (I-E^d class II molecules): ≤ 48%

Molecule: CH3CO-Lys-Leu-Phe-AI a-Val-Trp-Lys-Ile-Thr-Tyr-Lys-Asp-Thr-NH2 [L-peptide 103–115 of poliovirus VP1]
- binding to I-A^d transfected fibroblasts, in words (I-A^d class II molecules): Neither the L- nor the retro-inverso peptides bound
- IL-2 production of T-cell hybridomas stimulated by the peptide [6]: produced high levels of IL-2
- IL-2 production of T-lymphocytes of mice immunized with retro-inverso analogue 103–115, in response to the peptide [4]: IL-2 production were also found
- IL-2 production of lymph node cells of mice immunized with parent peptide 103–115, stimulated in vitro by the peptide [4]: produced significant levels of IL-2
- maximal IL-2 secretion measured using CTL-L cells in the presence of Con A [4]: 10 990 cpm
- proliferation of T-lymphocytes of mice immunized with retro-inverso analogue 103–115, in response to the peptide [5]: a good proliferative response
- proliferation of lymph node cells of mice immunized with parent peptide 103–115, stimulated in vitro by the peptide [5]: proliferated
- IL-2 production by T-cells primed with the retro-inverso analogue 103–115 in response to the peptide [7]: significantly increased
- inhibition (of IL-2 production / binding of cI 12–26) (I-E^d class II molecules): up to 77%
- cross-reaction in ELISA of antibodies raised against the peptide with the counterpart (L or retro-inverso) peptide (BALB/c mice): cross-reacted, although less efficiently

Molecule: CH3CO-Ser → Ala → Pro → Ala → Thr → Gly → Gly → Val → Lys → Lys → Pro → His → Arg → Tyr → Arg → Pro → Gly → Thr-NH2 [blocked L peptide 28–45]
- number of positive sera [8]: 20
- number of positive sera DLE [8]: 12
- percentage of positive sera [8]: 29%

Molecule: GILGFVFAL [Ala 65]
- fixing to the molecule HLA-A2 (fluorescence), in words (HLA-A2): very active

Molecule: GLLGFVFTL [Leu 59]
- fixing to the molecule HLA-A2 (fluorescence), in words (HLA-A2): very active

Molecule: H2 N-D-Val ← D-Cys ← D-Glu ← D-Lys ← D-Leu ← D-Cys ← D-Asn ← D-Glu ← D-Lys ← D-Leu ← D-Leu ← D-Lys ← D-Lys ← D-Ala ← D-Arg ← D-Ile ← D-His ← D-Pro ← D-Phe ← D-His ← D-Ile-COCH3 [Blocked RI peptide 304–324 of Ro60]
- mean optical density [9]: 1.15
- number of sera which reacted [9]: 15/20
- percentage of sera which reacted [9]: 75%

Molecule: H2N-Gly ← D-Leu ← D-Lys ← D-Lys ← D-Nle ← D-Leu ← D-Arg ← D-Thr ← D-Cys ← D-Ala ← D-Val ← D-His ← D-Ile ← D-Thr ← (R,S)-mLeu-OH [RIb peptide]
- sera of patients tested in which anti-peptide 277–291 antibodies are detected ([10]; 30 sera of DLE and SS patients): 50%
- mean optical density ([10]; arithmetic mean of all 30 sera, peptide 277–291 of Ro52): 0.51
- number of sera which reacted among the 25 sera negative with the L peptide ([10]; threshold 0.30 OD units): 10
- inhibition of bonding of the antibodies to the RIb peptide [11]: up to 79.2%

Molecule: H → Gly → Leu → Lys → Lys→ Nle → Leu → Arg → Thr → Cys → Ala → Val → His → Ile → Thr → Leu → OH [L peptide 277–291]
- inhibition of bonding of the antibodies to the RIb peptide [11]: up to 75.8%

Molecule: H-CKAFSNSYPYDVPDYASL-OH [parent L-peptide C18L]
- recognition by the tested antibodies (ELISA) [3]: substantially recognized in the same way

Molecule: H-Ser → Ala → Pro → Ala → Thr → Gly → Gly → Val → Lys → Lys → Pro → His → Arg → Tyr → Arg → Pro → Gly → Thr-OH [natural L peptide 28–45]
- number of positive sera [8]: 12
- number of positive sera DLE [8]: 8
- percentage of positive sera [8]: 17.4%

Molecule: [gLeu^60–mGly^61] M58–66 [GG5]
- fixing to the molecule HLA-A2 (fluorescence), in words (HLA-A2): do not bond to the HLA-A2 molecule
